According to patent US20240041042A1, “1-(PYRIDYL)-5-AZINYLPYRAZOLE DERIVATIVES, AND THEIR USE FOR CONTROL OF UNDESIRED PLANT GROWTH” (Bayer Aktiengesellschaft, priority 2020, published 2024):
Read-outs that look alike come from different tables or passages of the source.

How the values were obtained:
Format in all cases: in vivo
Viola tricolor (VIOTR) [1] = test: Post-emergence herbicidal action against VIOTR; settings: 320 g/ha
Outline: (§1)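 Post-emergence greenhouse spray, one-leaf stage, 600 l/ha water plus 0.5% additive; WP or EC formulations; application rates 320 g/ha or lower. Visual % damage vs untreated controls at ~3 weeks.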

[2] = test system: Matricaria inodora (MATIN); test: Post-emergence herbicidal action against MATIN; settings: dosage 320 g/ha
Outline: as §1

[3] = test system: Amaranthus retroflexus (AMARE); test: Pre-emergence herbicidal action against AMARE; settings: 320 g/ha, visual scoring after about 3 weeks vs untreated controls
Outline: (§2)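 Pre-emergence soil-surface spray, WP/EC formulation, 0.5% additive, 600 l/ha water, rates of 320 g/ha or lower. Greenhouse, ~3 wk. Visual score, % of untreated control (100% = plants dead, 0% = like control).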

Oryza sativa (ORYSA) = settings: crop plant compatibility
Outline: (§3)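 Test crops were treated 2 to 3 weeks after sowing, once they reached one leaf, by spraying compound in water with 0.5% additive at 600 l/ha. Visual scoring compared them with untreated controls roughly 3 weeks on, and appendices a, b and c denote different doses.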

Zea mays (ZEAMX) [4] = settings: for Post-emergence action against ZEAMX in %: crop plant compatibility, 80 g/ha, effect vs untreated controls
Outline: as §3

Lolium rigidum (LOLRI) [5] = test: Pre-emergence herbicidal action against LOLRI; settings: dosage 320 g/ha
Outline: as §2

[6] = test system: Verconica persica (VERPE); test: Post-emergence herbicidal action against VERPE; settings: 320 g/ha, VERPE
Outline: as §1

[7] = test system: Alopecurus myosuroides (ALOMY); test: Pre-emergence herbicidal action against ALOMY; settings: 320 g/ha; scored visually after about 3 weeks; 100% = plants have died
Outline: as §2

[8] = test system: Digitaria sanguinalis (DIGSA); test: Pre-emergence herbicidal action against DIGSA
Outline: as §2

[9] = test system: Amaranthus retroflexus (AMARE); test: Post-emergence herbicidal action against AMARE
Outline: as §1

Zea mays (ZEAMX) [10] = settings: pre-emergence, 80 g/ha, crop plant compatibility, in comparison to untreated controls
Excerpt: Seeds of monocotyledonous and dicotyledonous weed plants and crop plants are placed in plastic or organic planting pots and covered with soil. The compounds of the invention, formulated in the form of wettable powders (WP) or as emulsion concentrates (EC), are then applied to the surface of the covering soil as aqueous suspension or emulsion with addition of 0.5% additive at a water application rate equivalent to 600 l/ha. After the treatment, the pots are placed in a greenhouse and kept under good growth conditions for the trial plants. After about 3 weeks, the effect of the preparations is scored visually in comparison with untreated controls as percentages. For example, 100% activity=the plants have died, 0% activity=like control plants.
The observed effects on selected crop plants are reported here in comparison to the untreated controls (values in %). The appendices “a” “b” and “c” give differentiation by dosage used with otherwise the same crop plants tested.

[11] = test system: Pharbitis purpurea (PHBPU); test: Post-emergence herbicidal action against PHBPU
Outline: as §1

[12] = test system: Polygonum convolvulus (POLCO); test: Post-emergence herbicidal action against POLCO
Outline: as §1

Viola tricolor (VIOTR) [13] = test: Pre-emergence herbicidal action against VIOTR
Outline: as §2

Setaria viridis (SETVI) [14] = test: Post-emergence herbicidal action against SETVI; settings: dosage 80 g/ha
Outline: as §1

Setaria viridis (SETVI) [15] = test: Pre-emergence herbicidal action against SETVI; settings: dosage 320 g/ha
Outline: as §2

[16] = test system: Abutilon theophrasti (ABUTH); test: Post-emergence herbicidal action against ABUTH; settings: 80 g/ha, visual rating about 3 weeks after treatment vs untreated controls (100% = plants have died, 0% = like control plants)
Outline: as §1

[17] = test system: Matricaria inodora (MATIN); test: Pre-emergence herbicidal action against MATIN; settings: dosage 320 g/ha
Outline: as §2

[18] = test system: Verconica persica (VERPE); test: Pre-emergence herbicidal action against VERPE; settings: dosage 320 g/ha
Outline: as §2

[19] = test system: Echinochloa crus-galli (ECHCG); test: Pre-emergence herbicidal action against ECHCG; settings: dosage 320 g/ha
Outline: as §2

[20] = test system: Polygonum convolvulus (POLCO); test: Pre-emergence herbicidal action against POLCO; settings: dosage 320 g/ha
Outline: as §2

[21] = test system: Alopecurus myosuroides (ALOMY); test: Post-emergence herbicidal action against ALOMY; settings: visual rating about 3 weeks after treatment vs untreated controls (100% = plants have died, 0% = like control plants)
Outline: as §1

Lolium rigidum (LOLRI) [22] = test: Post-emergence herbicidal action against LOLRI; settings: dosage 320 g/ha
Outline: as §1

Avena fatua (AVEFA) = test: Post-emergence herbicidal action against AVEFA; settings: 320 g/ha, visual rating about 3 weeks after treatment
Outline: as §1

[23] = test system: Digitaria sanguinalis (DIGSA); test: Post-emergence herbicidal action against DIGSA; settings: 320 g/ha, visual rating about 3 weeks after treatment
Outline: as §1

[24] = 80 g/ha, effect in comparison to untreated controls
[25] = 320 g/ha, effect in comparison to untreated controls
[26] = 320 g/ha, visual rating about 3 weeks after treatment

Structure (SMILES)	Post-emergence action against VIOTR in % (Viola tricolor (VIOTR) [1]) [%]	Pre-emergence action against AMARE in % [3] [%]	Post-emergence action against ORYSA in % (Oryza sativa (ORYSA); [24]) [%]	Post-emergence action against ORYSA in % (Oryza sativa (ORYSA); [25]) [%]	Post-emergence action against ZEAMX in % (Zea mays (ZEAMX) [4]) [%]	Pre-emergence action against LOLRI in % (Lolium rigidum (LOLRI) [5]) [%]	Pre-emergence action against ALOMY [7] [%]	Pre-emergence action against DIGSA in % ([8]; dosage 320 g/ha) [%]	Post-emergence action against AMARE in % [9, 26] [%]	Pre-emergence action against ZEAMX in % (Zea mays (ZEAMX) [10]) [%]	Post-emergence action against PHBPU in % ([11]; dosage 80 g/ha) [%]	Post-emergence action against PHBPU in % ([11]; dosage 320 g/ha) [%]	Post-emergence action against POLCO in % ([12]; dosage 320 g/ha) [%]	Pre-emergence action against POLCO in % [20] [%]	other results
CCOC(=O)COc1nn(-c2ccccn2)c(-c2ccc(Cl)nc2)c1Cl [Example I-241]	80	90	0	0	0	90	80	90	80	0	80	90	80		Post-emergence action against MATIN in % [2]: 80%; Post-emergence action against VERPE in % [6]: 80%; Post-emergence action against POLCO in % ([12]; dosage 80 g/ha): 80%
CCOC(=O)CN(C)S(=O)(=O)NC(=O)COc1nn(-c2ncccc2F)c(-c2ccc(F)nc2)c1Br [Example I-54]		100	0				100	100		0				90	Pre-emergence action against VIOTR in % (Viola tricolor (VIOTR) [13]; 320 g/ha, Viola tricolor): 100%; Pre-emergence action against VIOTR in % (Viola tricolor (VIOTR) [13]; dosage 80 g/ha): 100%; Post-emergence action against SETVI in % (Setaria viridis (SETVI) [14]): 80%; Pre-emergence action against SETVI in % (Setaria viridis (SETVI) [15]): 100%; Post-emergence action against ABUTH in % [16]: 80%; Post-emergence action against ORYSA in % (Oryza sativa (ORYSA); 20 g/ha, effect vs untreated controls): 0%; Post-emergence action against ZEAMX in % (crop plant compatibility) (Zea mays (ZEAMX) [4]; 20 g/ha, ZEAMX, effect in comparison to untreated controls): 0%; Pre-emergence action against MATIN in % [17]: 100%; Pre-emergence action against VERPE in % [18]: 100%; Pre-emergence action against ECHCG in % [19]: 100%; Pre-emergence action against DIGSA in % ([8]; 80 g/ha, visual scoring after about 3 weeks vs untreated controls): 100%; Post-emergence action against AMARE in % ([9]; 80 g/ha, visual rating about 3 weeks after treatment vs untreated controls (100% = plants have died, 0% = like control plants)): 80%; Post-emergence action against ALOMY in % ([21]; 80 g/ha): 90%
COC(=O)[C@@H](C)Oc1nn(-c2ccccn2)c(-c2ccc(Cl)nc2)c1Cl [Example I-237]	80	100	0	20	10	90	90	90	90	0	80	90	80	80	Post-emergence action against LOLRI in % (Lolium rigidum (LOLRI) [22]): 80%; Post-emergence action against AVEFA in % (Avena fatua (AVEFA)): 80%; Post-emergence action against DIGSA in % [23]: 90%; Post-emergence action against ALOMY in % ([21]; 320 g/ha): 80%
